This is an account of results in patent US8404856B2, “Non-nucleoside reverse transcriptase inhibitors” (Merck Sharp & Dohme Corp., priority 2007, dated 2013).

The term IC50 denotes the midpoint of a concentration-inhibition curve.

Where a name gives a salt, the structure may show the parent alone. Read-outs that look alike come from different tables or passages of the source.

In data set [1] the target is HIV-1 RT enzyme (wild-type) (Human immunodeficiency virus type 1 group M subtype B, UniProt P04585). Description: ECL assay for inhibition of HIV reverse transcriptase (WT). The format is biochemical. Here is the method: (§1) 100 μL reaction mixtures were initiated with a combination of primer-template substrate (10 nM final concentration) and dNTPs (0.6 μM dNTPs, 1.25 μM BrdUTP). The heterodimeric nucleic acid substrate was generated by annealing the DNA primer pD500 (described in Shaw-Reid et al., J. Biol. Chem., 278: 2777-2780; obtained from Integrated DNA Technologies) to t500, a 500 nucleotide RNA template created by in vitro transcription (see Shaw-Reid et al., J. Biol. Chem., 278: 2777-2780). After 1 hour incubation at 37° C., reactions were quenched by 10 μL of 1 N NaOH. Microtiter plates were incubated for an additional 30 minutes at room temperature and then neutralized with 10 μL of 1 N HCl. A mixture of detection buffer containing ruthenylated anti-BrdU antibody and streptavidin coated magnetic beads were added to the plate and incubated at room temperature for 1.5 hours prior to quantification via electrochemiluminescence instrument.

In data set [2] the target is T1, HIV reverse transcriptase with the K103N mutation (Human immunodeficiency virus type 1 group M subtype B, UniProt P04585, K690N).
T1 construct: made in house
Put plainly: ECL assay for inhibition of mutant HIV reverse transcriptase (K103N). The format is biochemical, HIV-1. Here is the method:
as §1
(§2) Analogous assays were conducted substituting mutant HIV strains to determine the […] inhibition of compounds of the present invention against mutant HIV reverse transcriptase. In one strain the reverse transcriptase has the Y181C mutation and in the other strain the reverse transcriptase has the K103N mutation. The mutations were generated with the […] site-directed mutagenesis kit (Stratagene).

Data set [3] deals with T2, HIV reverse transcriptase with the Y181C mutation (Human immunodeficiency virus type 1 group M subtype B, UniProt P04585, Y768C).
T2 construct: made in house
Description: ECL assay for inhibition of mutant HIV reverse transcriptase (Y181C). Format: biochemical, HIV-1. Here is the method:
as §1, §2

For data set [4], the system named is wild type HIV-1. Description: Spread assay: inhibition of acute HIV-1 infection of T-lymphoid cells (WT). The format is cell-based. The note with it: Human immunodeficiency virus 1, T-lymphoid, read-out: Spread (WT) CIC95 (10% FBS). On the procedure:
(§3) Assays for the inhibition of acute HIV-1 infection of T-lymphoid cells (alternatively referred to herein as the “spread assay”) were conducted in accordance with Vacca, J. P. et al., Proc. Natl. Acad. Sci. USA 1994, 91: 4096. The assays tested for inhibition of wild type HIV-1 and of HIV strains containing the Y181C or K103N mutation. […] Table C also reports the CIC95 values of certain of the title compounds of Examples 1-25 obtained in the assays employing the Y181C mutant strain and the K103N mutant strain.

Data set [5] concerns HIV strain containing the K103N mutation. Put plainly: Spread assay: inhibition of acute HIV-1 infection of T-lymphoid cells (K103N). The format is cell-based. The note with it: Human immunodeficiency virus 1, T-lymphoid, read-out: Spread (K103N) CIC95 (10% FBS). On the procedure: as §3
In data set [6] the test system is HIV strain containing the Y181C mutation. Description: Spread assay: inhibition of acute HIV-1 infection of T-lymphoid cells (Y181C). The format is cell-based. The note with it: Human immunodeficiency virus 1, T-lymphoid, read-out: Spread (Y181C) CIC95 (10% FBS). On the procedure:
as §3

Data set [7] has as its system T-lymphoid cells. Format: cell-based. On the procedure:
Cytotoxicity was determined by microscopic examination of the cells in each well in the spread assay, wherein a trained analyst observed each culture for any of the following morphological changes as compared to the control cultures: pH imbalance, cell abnormality, cytostatic, cytopathic, or crystallization (i.e., the compound is not soluble or forms crystals in the well). The toxicity value assigned to a given compound is the lowest concentration of the compound at which one of the above changes is observed.

Setting [8] is: wild-type HIV-1 RT, read-out: ECL Assay (WT) IC50.
Setting [9] is: K103N mutant RT, read-out: ECL Assay (K103N) IC50.
Where [10] appears, read: Y181C mutant RT, read-out: ECL Assay (Y181C) IC50.

For `N#Cc1cc(Cl)cc(Oc2c(C(F)(F)F)ccn(Cc3n[nH]c4ncccc34)c2=O)c1` [Compound 13-2, 3-chloro-5-{[2-oxo-1-(1H-pyrazolo[3,4-b]pyridin-3-ylmethyl)-4-(trifluoromethyl)-1,2-dihydropyridin-3-yl]oxy}benzonitrile], the IC50 in data set [1] (setting [8]) worked out at 1.6 nM; in data set [2] (setting [9]), 2.6 nM; in data set [3] (setting [10]), 2 nM. For the same compound, the IC95 was 4 nM in data set [4] (wild type HIV-1, 10% FBS); 6 nM in data set [5]; 8 nM in data set [6]. Also, the “Cytotoxicity: no cytotoxicity at concentrations up to” value (from here on “Cytotoxicity: no cytotoxicity”) in data set [7] was more than 833 nM.

On to `N#Cc1cc(Cl)cc(Oc2cc(CCc3n[nH]c4ncccc34)[nH]c(=O)c2Cl)c1` [Compound 3-8, 3-chloro-5-({3-chloro-2-oxo-6-[2-(1H-pyrazolo[3,4-b]pyridin-3-yl)ethyl]-1,2-dihydropyridin-4-yl}oxy)benzonitrile], for which the IC50 in data set [1] (setting [8]) turned out to be 1.9 nM; in data set [2] (setting [9]), 4.7 nM; in data set [3] (setting [10]), 3 nM. Also, the IC95 in data set [4] (wild type HIV-1, 10% FBS) is 7 nM; in data set [5], 31 nM; in data set [6], 19 nM. In addition, the “Cytotoxicity: no cytotoxicity” value in data set [7] is reported as more than 833 nM.

As to `N#Cc1cc(Cl)cc(Oc2c(Cl)c(Cl)cn(Cc3n[nH]c4ncccc34)c2=O)c1` [Compound 23-2, 3-chloro-5-{[4,5-dichloro-2-oxo-1-(1H-pyrazolo[3,4-b]pyridin-3-ylmethyl)-1,2-dihydropyridin-3-yl]oxy}benzonitrile], the IC50 was 0.96 nM in data set [1] (setting [8]), 1.6 nM in data set [2] (setting [9]) and 1.3 nM in data set [3] (setting [10]). Also, the IC95 in data set [4] (wild type HIV-1, 10% FBS) came to 5 nM; in data set [5] it was 11 nM; in data set [6] it was 15 nM. The “Cytotoxicity: no cytotoxicity” value in data set [7] is recorded as more than 833 nM.

`N#Cc1cc(Cl)cc(Oc2c(Cl)ccn(Cc3n[nH]c4nc(N)ccc34)c2=O)c1.O=C(O)C(F)(F)F` [Compound 22, 3-({1-[(6-amino-1H-pyrazolo[3,4-b]pyridin-3-yl)methyl]-4-chloro-2-oxo-1,2-dihydropyridin-3-yl}oxy)-5-chlorobenzonitrile trifluoroacetate]: the figures for the half-inhibitory concentration (IC50) in data set [1], in data set [2] and in data set [3] were 1.3 nM, 2.1 nM and 1.8 nM, respectively. In addition, the IC95 in data set [4] (wild type HIV-1, 10% FBS) is 2 nM; in data set [5] it was 7 nM; in data set [6], 63 nM. Further, in data set [7], the “Cytotoxicity: no cytotoxicity” value was more than 833 nM.

As for `N#Cc1cc(Cl)cc(Oc2c(C(F)(F)F)ccn(Cc3n[nH]c4nc(N)ccc34)c2=O)c1` [Compound 17-2, 3-{[3-(3-chloro-5-cyanophenoxy)-2-oxo-4-(trifluoromethyl)pyridin-1(2H)-yl]methyl}-1H-pyrazolo[3,4-b]pyridin-6-aminium trifluoroacetate], the IC50 in data set [1] was 1.9 nM; in data set [2] it was 3.1 nM; in data set [3] it was 2.4 nM. Moreover, the IC95 in data set [4] turned out to be 6 nM; in data set [5], 11 nM; in data set [6], 42 nM. Further, the “Cytotoxicity: no cytotoxicity” value in data set [7] was more than 833 nM.

With `NS(=O)(=O)c1ccc(NC(=O)Cn2ccc(C(F)(F)F)c(Oc3cc(Cl)cc(Br)c3)c2=O)c(Cl)c1` [Compound 16, N-[4-(aminosulfonyl)-2-chlorophenyl]-2-[3-(3-bromo-5-chlorophenoxy)-2-oxo-4-(trifluoromethyl)pyridin-1(2H)-yl]acetamide], the results for the IC50 in data set [1] (setting [8]), in data set [2] (setting [9]) and in data set [3] (setting [10]) were 1.9 nM, 2.8 nM and 2.6 nM, respectively. In addition, the IC95 turned out to be 8 nM in data set [4] (wild type HIV-1, 10% FBS); 21 nM in data set [5]; 30 nM in data set [6]. For the same compound, the “Cytotoxicity: no cytotoxicity” value in data set [7] is reported as more than 833 nM.
